Experimental data taken from paper PMC6178217 (JACC. Cardiovascular imaging, 2018).
Like-named read-outs stand apart in the source and are kept apart here.

Experiments:
CB1-R [1] = settings: cited from earlier work
myocardial CB1-R [2] = biological target: myocardial CB1-R (Homo sapiens, UniProt P21554); assay: [^11C]-OMAR PET/CT, myocardial retention index of OMAR in humans; assay type: in vivo; settings: median (range)
[3] = median (range)
[4] = as reported in brain studies; cited from earlier work
[5] = obese mice, intravenous, median (range)
myocardial CB1-R [6] = biological target: myocardial CB1-R (Mus musculus, UniProt P47746); assay: [^11C]-OMAR dynamic micro-PET/CT, myocardial OMAR retention in mice; assay type: in vivo; settings: for myocardial OMAR retention: median [range]
CB1-R [7] = biological target: CB1-R (Mus musculus, UniProt P47746); assay: Rimonabant blocking study of [^11C]-OMAR uptake in obese mice; assay type: in vivo
Sequence of CB1-R (Mus musculus, UniProt P47746) (P47746 whole entry): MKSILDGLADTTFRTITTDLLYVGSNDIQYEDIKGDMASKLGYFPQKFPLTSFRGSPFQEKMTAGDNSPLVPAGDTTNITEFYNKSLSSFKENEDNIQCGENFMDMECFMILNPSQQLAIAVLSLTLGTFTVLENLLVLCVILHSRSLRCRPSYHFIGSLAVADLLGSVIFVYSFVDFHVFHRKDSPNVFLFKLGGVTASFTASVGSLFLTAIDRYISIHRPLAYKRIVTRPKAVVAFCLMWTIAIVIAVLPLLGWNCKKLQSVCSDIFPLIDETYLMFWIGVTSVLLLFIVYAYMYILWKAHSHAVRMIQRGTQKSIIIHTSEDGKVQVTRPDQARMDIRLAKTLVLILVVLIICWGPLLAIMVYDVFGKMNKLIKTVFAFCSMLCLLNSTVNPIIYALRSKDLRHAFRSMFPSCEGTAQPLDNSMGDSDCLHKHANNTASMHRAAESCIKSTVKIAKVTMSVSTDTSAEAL

Sequence of myocardial CB1-R (Mus musculus, UniProt P47746) (P47746 whole entry): as above
Sequence of myocardial CB1-R (Homo sapiens, UniProt P21554) (P21554 whole entry): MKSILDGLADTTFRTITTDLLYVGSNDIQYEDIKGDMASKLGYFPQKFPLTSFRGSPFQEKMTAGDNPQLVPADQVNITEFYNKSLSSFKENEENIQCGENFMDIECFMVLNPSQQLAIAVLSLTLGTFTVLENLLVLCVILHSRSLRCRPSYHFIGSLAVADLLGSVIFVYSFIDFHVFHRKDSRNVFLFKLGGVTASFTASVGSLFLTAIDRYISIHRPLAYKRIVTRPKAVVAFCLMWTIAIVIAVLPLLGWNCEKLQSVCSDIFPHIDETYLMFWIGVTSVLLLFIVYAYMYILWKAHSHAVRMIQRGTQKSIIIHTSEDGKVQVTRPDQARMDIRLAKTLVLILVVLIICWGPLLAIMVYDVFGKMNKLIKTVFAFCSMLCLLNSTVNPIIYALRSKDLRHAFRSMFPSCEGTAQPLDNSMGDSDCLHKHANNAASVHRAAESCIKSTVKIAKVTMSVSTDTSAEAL

[11CH3]Oc1ccc(-c2c(C#N)c(C(=O)NN3CCCCC3)nn2-c2ccc(Cl)cc2Cl)cc1 [[^11C]-OMAR]
blocking of [^11C]-OMAR uptake reported for brain studies (CB1-R [1]; brain): about 75% | binding potential in the brain (CB1-R [1]; previous blocking studies in the brain): about 2 | OMAR retention (absolute left ventricular) (myocardial CB1-R [2]; AOB (advanced obesity)): 5.68 (1.88–6.89) %/min | OMAR retention (absolute left ventricular) (myocardial CB1-R [2]; CON (normal-weight control subjects)): 0.47 (0.13–1.31) %/min | DBP after [^11C]-OMAR injection ([3]; AOB): 71 (56–78) mm Hg | HR after [^11C]-OMAR injection ([3]; AOB): 72 (65–84) beats/min | MAP after [^11C]-OMAR injection ([3]; AOB): 93 (76–96) mm Hg | RPP after [^11C]-OMAR injection ([3]; AOB): 9,588 (7,325–10,960) mm Hg/min | SBP after [^11C]-OMAR injection ([3]; AOB): 133 (116–140) mm Hg | DBP after [^11C]-OMAR injection ([3]; CON): 62 (60–68) mm Hg | HR after [^11C]-OMAR injection ([3]; CON): 70 (61–77) beats/min | MAP after [^11C]-OMAR injection ([3]; CON): 81 (75–97) mm Hg | SBP after [^11C]-OMAR injection ([3]; CON): 120 (118–124) mm Hg | radioactivity related to unchanged [^11C]-OMAR [4]: at least 94% | [^11C]-OMAR uptake, Blood ([5]; 5 min): 1.19 (1.10–1.33) %ID/g Tissue | [^11C]-OMAR uptake, Cerebellum ([5]; 5 min): 2.43 (1.72–2.74) %ID/g Tissue | [^11C]-OMAR uptake, Heart ([5]; 5 min): 4.63 (4.00–5.23) %ID/g Tissue | [^11C]-OMAR uptake, Blood ([5]; 10 min): 0.99 (0.91–1.19) %ID/g Tissue | [^11C]-OMAR uptake, Cerebellum ([5]; 10 min): 2.32 (2.11–2.50) %ID/g Tissue | [^11C]-OMAR uptake, Thalamus ([5]; 10 min): 1.62 (1.59–1.72) %ID/g Tissue | [^11C]-OMAR uptake, Blood ([5]; 15 min): 0.99 (0.91–1.19) %ID/g Tissue | [^11C]-OMAR uptake, Cerebellum ([5]; 15 min): 2.53 (2.43–2.55) %ID/g Tissue | [^11C]-OMAR uptake, Thalamus ([5]; 15 min): 1.69 (1.59–1.72) %ID/g Tissue | [^11C]-OMAR uptake, Blood ([5]; 30 min): 0.55 (0.39–0.65) %ID/g Tissue | [^11C]-OMAR uptake, Cerebellum ([5]; 30 min): 2.11 (1.25–2.38) %ID/g Tissue | [^11C]-OMAR uptake, Heart ([5]; 30 min): 2.14 (2.09–2.17) %ID/g Tissue | [^11C]-OMAR uptake, Thalamus ([5]; 30 min): 1.21 (1.18–1.21) %ID/g Tissue | [^11C]-OMAR uptake, Blood ([5]; 60 min): 0.46 (0.46–0.47) %ID/g Tissue | [^11C]-OMAR uptake, Cerebellum ([5]; 60 min): 1.37 (1.25–1.51) %ID/g Tissue | [^11C]-OMAR uptake, Heart ([5]; 60 min): 1.55 (1.48–1.61) %ID/g Tissue | [^11C]-OMAR uptake, Thalamus ([5]; 60 min): 0.73 (0.58–0.77) %ID/g Tissue | [^11C]-OMAR uptake, Blood ([5]; 90 min): 0.55 (0.51–0.68) %ID/g Tissue | [^11C]-OMAR uptake, Cerebellum ([5]; 90 min): 1.11 (1.05–2.00) %ID/g Tissue | [^11C]-OMAR uptake, Heart ([5]; 90 min): 1.40 (1.40–1.79) %ID/g Tissue | [^11C]-OMAR uptake, Thalamus ([5]; 90 min): 0.55 (0.38–0.98) %ID/g Tissue | fold higher [^11C]-OMAR retention in obese versus lean mice (myocardial CB1-R [6]; heart, ob/ob vs lean control mice, micro-PET/CT): 8 fold | myocardial OMAR retention (myocardial CB1-R [6]; normal-weight mice): 0.13 %/min | binding potential of [^11C]-OMAR to myocardial CB1-R (myocardial CB1-R [6]; obese mice): 6.4 | myocardial OMAR retention (myocardial CB1-R [6]; obese mice): 8.29 %/min | [^11C]-OMAR uptake that could not be blocked (CB1-R [7]; 5 mg/kg dose of rimonabant, heart): about 42% | baseline-to-block ratio of myocardial [^11C]-OMAR uptake (CB1-R [7]; myocardial blocking study): about 2.4 | binding potential (CB1-R [7]; myocardial blocking study): > 1
